Values quoted from earlier work, collected in patent US20050181516A1, “Bioequivalence determination using expression profiling” (priority 2002, published 2005).

Experiments:
contact dermatitis = conditions: topical application and oral route; cited from earlier work
[1] = system: reperfusion after ischemia in the brain; conditions: in vivo; cited from earlier work
[2] = system: atopic dermatitis or psoriasis; conditions: topical formulation; cited from earlier work

CC[C@@H]1/C=C(\C)C[C@H](C)C[C@H](OC)[C@H]2O[C@@](O)(C(=O)C(=O)N3CCCC[C@H]3C(=O)O[C@H](/C(C)=C/[C@@H]3CC[C@H](Cl)[C@H](OC)C3)[C@H](C)[C@@H](O)CC1=O)[C@H](C)C[C@@H]2OC [ASM981, 33-Epichloro-33-desoxy-ascomycin]
efficacy in animal models of contact dermatitis (contact dermatitis): effective | anti-inflammatory properties in reperfusion after ischemia in the brain [1]: successfully tested | outcome of clinical trials in atopic dermatitis or psoriasis [2]: clinical regression
